Where two headings read alike, the source gives them in different places.
Experiments:
Format in all cases: cell-based
[1] = tested on: mouse colon carcinoma (CT26) cell line; assay: MTS antiproliferative (cytotoxicity) assay, CT26; settings: for SI (selectivity index), CT26: Vero as reference cell line
Description: (§1) The cytotoxicity of synthesized 3-azaspiro[bicyclo[3.1.0]hexane-2,5′-pyrimidines] 4 against human erythroleukemia (K562), cervical carcinoma (HeLa), and T lymphocyte (Jurkat), as well as mouse colon carcinoma (CT26) and African green monkey kidney epithelial (Vero) cell lines as reference, was evaluated in vitro by the standard MTS assay for 24 and 72 h.
(§2) All the cell lines (human cervical carcinoma (HeLa), erythroleukemia (K-562), and T lymphocyte (Jurkat) as well as mouse colon carcinoma (CT26) and African green monkey kidney epithelial (Vero)) were obtained from the cell repository “Vertebrate cell culture collection” (supported by the Ministry of Science and Higher Education of the Russian Federation, agreement №075-15-2021-683, Institute of Cytology, Russian Academy of Sciences, Saint Petersburg, Russia). HeLa, Jurkat, and Vero cells were cultured in DMEM (HyClone, South Logan, UT, USA) supplemented with 10% (v/v) fetal bovine serum (Hyclone, GE Healthcare Life Sciences, Logan, UT, USA), and gentamicin (Sigma-Aldrich, St. Louis, MO, USA) at 37 °C in a humidified atmosphere with 5% CO2. K-562 and CT26 cells were grown at RPMI medium (Hyclone, GE Healthcare Life Sciences, Logan, UT, USA), with the same supplements and conditions.
(§3) To evaluate the in vitro toxicity of compounds synthesized, cells were seeded into 96-well plates at a density of 5 × 10^3 cells per well. On the next day, tested compounds were added to the wells at concentrations ranging from […], followed by incubation for 1 and 3 days. Cell proliferation was determined by adding 20 μL of MTS reagent (BioVision, Milpitas, CA, USA) stock solution per well. Each plate was incubated for 2 h at 37 °C in a humidified, 5% CO2 atmosphere. The plates were then read at 495 nm using plate spectrophotometer (Multiskan GO, Thermo Fisher Scientific, Waltham, MA, USA). All samples were measured in triplicates.

[2] = tested on: human erythroleukemia (K562) cell line; assay: MTS antiproliferative (cytotoxicity) assay, K562; settings: for SI (selectivity index), K562: Vero as reference cell line
Description: as §1, §2, §3

[3] = tested on: African green monkey kidney epithelial (Vero) cell line; assay: MTS antiproliferative (cytotoxicity) assay, Vero (reference)
Description: as §1, §2, §3

[4] = tested on: human cervical carcinoma (HeLa) cell line; assay: MTS antiproliferative (cytotoxicity) assay, HeLa; settings: for SI (selectivity index), HeLa: Vero as reference cell line
Description: as §1, §2, §3

[5] = tested on: human T lymphocyte (Jurkat) cell line; assay: MTS antiproliferative (cytotoxicity) assay, Jurkat; settings: for IC50: Homo sapiens, MTS
Description: (§4) The cytotoxicity of synthesized 3-azaspiro[bicyclo[3.1.0]hexane-2,5′-pyrimidines] 4 against human erythroleukemia (K562), cervical carcinoma (HeLa), and T lymphocyte (Jurkat), as well as mouse colon carcinoma (CT26) and African green monkey kidney epithelial (Vero) cell lines as reference, was evaluated in vitro by the standard MTS assay for 24 and 72 h. The results are presented in Figure 1, Figure 2, Figure 3, Figure 4 and Figure 5 (data on all, tested on K562, HeLa, and CT26 cell lines’ compounds, are given at SI, Figures S1–S3). […] Replacement of the phenyl group by either the carboxymethyl or N-isopropylcarbamoyl group has led to a significant decrease in the activity of spiro-fused cycloadducts comprising azabicyclo[3.1.0]hexane and alloxane moieties.
as §2, §3

[6] = tested on: K562, Jurkat, HeLa, CT26 and Vero cell lines; assay: MTS antiproliferative screening, all tested cell lines; settings: compared with phenyl substituted adducts
Description: as §4, with “moieties. […]” for “moieties.”
To evaluate the in vitro toxicity of compounds synthesized, cells were seeded into 96-well plates at a density of 5 × 10^3 cells per well. […] Cell proliferation was determined by adding 20 μL of MTS reagent (BioVision, Milpitas, CA, USA) stock solution per well. […] The plates were then read at 495 nm using plate spectrophotometer (Multiskan GO, Thermo Fisher Scientific, Waltham, MA, USA). All samples were measured in triplicates.

[7] = Mus musculus, CT26, 24 h, read-out: IC50, CT26, 24 h
[8] = Mus musculus, CT26, 72 h, read-out: IC50, CT26, 72 h
[9] = Homo sapiens, K562, 24 h, read-out: IC50, K562, 24 h
[10] = Homo sapiens, K562, 72 h, read-out: IC50, K562, 72 h
[11] = Chlorocebus sabaeus, Vero, 24 h, read-out: IC50, Vero, 24 h
[12] = Chlorocebus sabaeus, Vero, 72 h, read-out: IC50, Vero, 72 h
[13] = Homo sapiens, HeLa, 24 h, read-out: IC50, HeLa, 24 h
[14] = Homo sapiens, HeLa, 72 h, read-out: IC50, HeLa, 72 h

SMILES	SI (selectivity index), CT26 ([1]; CT26)	SI (selectivity index), K562 ([2]; K562)	SI (selectivity index), HeLa ([4]; HeLa)	IC50 [1, 7] [µM]	IC50 [1, 8] [µM]	IC50 [2, 9] [µM]	IC50 [2, 10] [µM]	IC50 [3, 11] [µM]	IC50 [3, 12] [µM]	IC50 [4, 13] [µM]	IC50 [4, 14] [µM]	other results
COc1cccc2c1C(=O)c1c(O)c3c(c(O)c1C2=O)C[C@@](O)(C(=O)CO)C[C@@H]3O[C@H]1C[C@H](N)[C@H](O)[C@H](C)O1 [Doxorubicin, reference compound]	0.5	2.0	4.8									IC50 ([1]; Mus musculus, CT26, MTS, 24 h, read-out: IC50, CT26, 24 h): 19 ± 3 µM; IC50 ([1]; Mus musculus, CT26, MTS, 72 h, read-out: IC50, CT26, 72 h): 5.5 ± 0.3 µM; IC50 ([2]; Homo sapiens, K562, MTS, 24 h, read-out: IC50, K562, 24 h): 16 ± 3 µM; IC50 ([2]; Homo sapiens, K562, MTS, 72 h, read-out: IC50, K562, 72 h): 1.2 ± 0.3 µM; IC50 ([3]; Chlorocebus sabaeus, Vero, MTS, 24 h, read-out: IC50, Vero, 24 h): 13 ± 2 µM; IC50 ([3]; Chlorocebus sabaeus, Vero, MTS, 72 h, read-out: IC50, Vero, 72 h): 2.4 ± 0.4 µM; IC50 ([4]; Homo sapiens, HeLa, MTS, 24 h, read-out: IC50, HeLa, 24 h): 4 ± 1 µM; IC50 ([4]; Homo sapiens, HeLa, MTS, 72 h, read-out: IC50, HeLa, 72 h): 0.5 ± 0.1 µM
O=C1NC(=O)C2(NC[C@@]3(c4ccccc4)[C@H](c4ccccc4)[C@@]23c2ccccc2)C(=O)N1 [Compound 4a]	0.3	1.0	0.2	64 ± 7	50 ± 7	47 ± 8	14 ± 1	50 ± 14	14 ± 2	125 ± 18	70 ± 4	IC50 ([5]; 24 h, read-out: IC50, Jurkat, 24 h): 24 ± 2 µM; IC50 ([5]; 72 h, read-out: IC50, Jurkat, 72 h): 19 ± 5 µM; SI (selectivity index), Jurkat ([5]; Vero as reference cell line): 0.8; relative antiproliferative activity (structure-activity comparison) [6]: less active
N.N.[Cl][Pt][Cl] [Cisplatin, reference compound]	0.8	0.3	0.7									IC50 ([1]; MTS, 24 h, read-out: IC50, CT26, 24 h): 24 ± 4 µM; IC50 ([1]; MTS, 72 h, read-out: IC50, CT26, 72 h): 5 ± 1 µM; IC50 ([2]; MTS, 24 h, read-out: IC50, K562, 24 h): 46 ± 8 µM; IC50 ([2]; MTS, 72 h, read-out: IC50, K562, 72 h): 14 ± 2 µM; IC50 ([3]; MTS, 24 h, read-out: IC50, Vero, 24 h): 14 ± 1 µM; IC50 ([3]; MTS, 72 h, read-out: IC50, Vero, 72 h): 4 ± 1 µM; IC50 ([4]; MTS, 24 h, read-out: IC50, HeLa, 24 h): 16 ± 4 µM; IC50 ([4]; MTS, 72 h, read-out: IC50, HeLa, 72 h): 6 ± 1 µM
C[C@@H]1NC2(C(=O)NC(=O)NC2=O)[C@]2(c3ccccc3)[C@@H](c3ccccc3)[C@]12c1ccccc1 [Compound 4b]	1.0	2.4	1.2	30 ± 2	21 ± 2	25 ± 5	9 ± 2	55 ± 7	21 ± 2	34 ± 2	18 ± 2	

— publication PMC9506420, “Biological Evaluation of 3-Azaspiro[Bicyclo[3.1.0]Hexane-2,5′-Pyrimidines] as Potential Antitumor Agents” (International Journal of Molecular Sciences, 2022)
